Assay results reported in US20170275287A1, “NOVEL N2, N4, N7, 6-TETRASUBSTITUTED PTERIDINE-2,4,7-TRIAMINE AND 2, 4, 6, 7-TETRASUBSTITUTED PTERIDINE COMPOUNDS AND METHODS OF SYNTHESIS AND USE THEREOF” (Janus Biotherapeutics, Inc., priority 2014, published 2017).

Key:
[1] = tested on: hepatocyte; test: Hepatocyte viability assay (CEREP); format: cell-based
Procedure: See, Tables 4b and Scheme 18. The hepatocyte cell viability assays were performed by CEREP, Seattle, Wash., according to Mosmann, T., 1983, J. Immunol. Met. 65:55-62.

[2] = target: T1, TLR7 (Homo sapiens, UniProt Q9NYK1); test: TLR7 antagonist assay in human PBMCs (ORN1075, IFNα ELISA); format: cell-based; set-up: PBMCs were isolated from unpurified buffy coat from healthy human donors; host or cells: primary human PBMCs; details: human PBMC, 0.5 μM ORN1075, IFNα readout
T1 sequence (Q9NYK1 27-1049): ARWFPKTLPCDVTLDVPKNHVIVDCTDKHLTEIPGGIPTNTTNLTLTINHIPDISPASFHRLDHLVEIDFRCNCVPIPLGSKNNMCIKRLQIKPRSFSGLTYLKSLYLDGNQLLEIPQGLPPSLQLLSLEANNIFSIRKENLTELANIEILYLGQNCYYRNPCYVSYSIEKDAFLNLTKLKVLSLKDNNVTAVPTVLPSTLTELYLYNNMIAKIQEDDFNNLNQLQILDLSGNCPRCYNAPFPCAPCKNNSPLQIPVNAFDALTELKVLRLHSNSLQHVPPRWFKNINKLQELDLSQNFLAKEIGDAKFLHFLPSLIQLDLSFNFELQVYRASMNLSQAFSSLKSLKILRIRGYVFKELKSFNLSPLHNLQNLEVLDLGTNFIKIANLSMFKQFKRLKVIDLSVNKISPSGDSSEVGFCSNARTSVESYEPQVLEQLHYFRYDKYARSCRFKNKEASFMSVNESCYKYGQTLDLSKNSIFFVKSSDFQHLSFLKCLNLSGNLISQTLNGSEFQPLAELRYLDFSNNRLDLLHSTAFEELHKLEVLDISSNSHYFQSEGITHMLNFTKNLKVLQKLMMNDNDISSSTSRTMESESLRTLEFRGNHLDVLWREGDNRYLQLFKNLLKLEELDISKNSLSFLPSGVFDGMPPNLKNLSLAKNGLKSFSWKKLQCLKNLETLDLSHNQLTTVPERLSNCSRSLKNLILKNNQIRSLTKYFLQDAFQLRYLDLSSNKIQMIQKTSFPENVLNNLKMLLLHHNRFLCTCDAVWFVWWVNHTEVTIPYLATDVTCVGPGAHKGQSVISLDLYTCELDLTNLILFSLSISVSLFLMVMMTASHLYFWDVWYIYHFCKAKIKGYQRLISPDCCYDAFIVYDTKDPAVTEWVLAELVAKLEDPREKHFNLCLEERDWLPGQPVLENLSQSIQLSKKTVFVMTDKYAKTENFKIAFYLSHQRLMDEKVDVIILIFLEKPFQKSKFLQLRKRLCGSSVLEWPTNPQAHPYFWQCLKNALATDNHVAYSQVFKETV
Procedure: PBMCs were isolated from unpurified buffy coat from healthy human donors (Blood Research Components, LLC). For antagonist testing, cells were plated on 96-well U-bottom plates at 3×10^6 cells/ml. Antagonist compounds were added to cells in duplicate wells and titrated from 10 μM in 1:3 serial dilutions (8 antagonist concentrations tested in total). After approximately 30 minutes, cells were stimulated with agonist compound (see table 2 for agonist concentrations). After stimulation, cells were incubated overnight at 37° C. To increase the stability of the ssRNA, 3 μg/ml DOTAP (Roche) was added to ORN1075 agonist solutions. All dilutions were made in RPMI-1640 media (Sigma, cat.# R7388)+5% human male AB sera (Sigma, cat.# H4522)+1× Penicillin/Streptomycin solution (VWR, cat.#82026-730).
TLR activity was measured in PBMCs and neutrophils by ELISA using cytokine readouts specific for the TLR of interest.
IFNα was measured as a readout for TLR7 and TLR9 activity in PBMCs stimulated with either ORN1075, or ODN2395, respectively, using a Human Pan-IFNα ELISA kit (MABTech, cat.#3425-1H-20). PBMC supernatant was diluted 1:3 in PBS+0.05% tween-20+0.1% BSA. Absorbance at 450 nm was recorded using a Molecular Devices SpectraMax340PC plate reader. The IC50 for each antagonist was subsequently calculated following the method described below.
Raw ELISA datasets for each 96-well plate, consisting of absorbance readings at […], were first imported in Microsoft Excel to calculate the average absorbance for each standard or antagonist concentration. The averaged data was then imported into SigmaPlot v.11.0 where a standard curve was calculated and used to extrapolate the relative concentration of TLR readout (TNFα, IFNα, etc.) produced. The dose-response curve of each antagonist was then plotted with SigmaPlot v.11.0 on a Log scale. Concentrations of TLR readout were converted to a percentage relative to the average maximum concentration for that ELISA plate in Microsoft Excel. The IC50 for each antagonist was then determined with the SigmaPlot regression wizard using a 4-parameter Hill equation. Each antagonist was tested in a minimum of 3 independent experiments and IC50 results were compiled and averaged using Microsoft Excel.

[3] = target: T1, TLR7; test: Antagonist/agonist competitive inhibition cross titration (TLR7 agonist JB6011); format: cell-based; details: antagonist 10 uM to 4 nM vs agonist 0.12-3.3 μM; preliminary, one assay
Procedure: In preliminary results (i.e., one assay result—repeat assays in process), a cross titration of antagonist versus agonist was performed to determine the form of antagonist binding. JB6121 was titrated from 10 uM to 4 nM against various concentrations of challenge agonist. The small molecule TLR7 agonist JB6011 was used. The graph below, while crude, implies that the inhibition of the TLR7 agonist by JB6121 is competitive in nature due to the parallel tracking of the curves as the agonist dose is increased. The agonist range for this experiment was between 0.12 and 3.3 μM or about a 30-fold range.

[4] = target: T2, CYP1A2 (Homo sapiens, UniProt P05177); test: Cytochrome p450 inhibition (CEREP); format: in vitro ADME; details: 10 μM
T2 construct: CEREP (contract laboratory)
T2 sequence (P05177 whole entry): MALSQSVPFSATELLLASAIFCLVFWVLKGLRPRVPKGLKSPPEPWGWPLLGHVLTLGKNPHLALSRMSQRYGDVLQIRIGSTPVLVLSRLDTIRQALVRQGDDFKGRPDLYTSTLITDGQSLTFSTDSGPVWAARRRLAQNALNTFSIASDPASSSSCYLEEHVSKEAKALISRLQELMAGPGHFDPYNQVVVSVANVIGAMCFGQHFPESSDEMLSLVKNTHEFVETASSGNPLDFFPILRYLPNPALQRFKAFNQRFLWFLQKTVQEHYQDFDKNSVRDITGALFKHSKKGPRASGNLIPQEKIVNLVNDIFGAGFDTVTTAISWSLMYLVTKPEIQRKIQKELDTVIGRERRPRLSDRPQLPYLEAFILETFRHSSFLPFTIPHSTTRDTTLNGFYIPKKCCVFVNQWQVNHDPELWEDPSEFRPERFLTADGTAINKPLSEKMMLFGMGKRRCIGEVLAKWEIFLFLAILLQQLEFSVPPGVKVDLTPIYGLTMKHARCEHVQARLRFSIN
Procedure: (§1) JB6121 was also tested for CYP inhibition, see Table 6 below. Assays where performed by CEREP, Seattle, Wash., according to Atkinson, A et al., 2005, Drug Metab. Dispos. 33:1637-1647.

[5] = target: T3, CYP3A4 (Homo sapiens, UniProt P08684); test: Cytochrome p450 inhibition (CEREP); format: in vitro ADME; details: 10 μM
T3 construct: CEREP (contract laboratory)
T3 sequence (P08684 whole entry): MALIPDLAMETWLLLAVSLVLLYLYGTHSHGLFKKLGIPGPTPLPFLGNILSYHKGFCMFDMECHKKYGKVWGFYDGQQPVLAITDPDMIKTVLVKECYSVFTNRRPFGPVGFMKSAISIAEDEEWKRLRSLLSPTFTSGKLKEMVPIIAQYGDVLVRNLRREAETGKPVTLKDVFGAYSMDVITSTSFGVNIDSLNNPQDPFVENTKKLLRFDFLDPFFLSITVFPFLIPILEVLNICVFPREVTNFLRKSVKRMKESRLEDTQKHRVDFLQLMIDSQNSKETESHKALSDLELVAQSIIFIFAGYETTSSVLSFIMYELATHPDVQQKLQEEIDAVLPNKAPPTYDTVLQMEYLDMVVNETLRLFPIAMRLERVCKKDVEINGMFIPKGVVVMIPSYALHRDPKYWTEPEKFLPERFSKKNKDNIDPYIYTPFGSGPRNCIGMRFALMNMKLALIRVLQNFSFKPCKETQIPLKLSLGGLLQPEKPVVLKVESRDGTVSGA
Procedure: as §1

[6] = target: T4, CYP2B6 (Homo sapiens, UniProt P20813); test: Cytochrome p450 inhibition (CEREP); format: in vitro ADME; details: 10 μM
T4 construct: CEREP (contract laboratory)
T4 sequence (P20813 whole entry): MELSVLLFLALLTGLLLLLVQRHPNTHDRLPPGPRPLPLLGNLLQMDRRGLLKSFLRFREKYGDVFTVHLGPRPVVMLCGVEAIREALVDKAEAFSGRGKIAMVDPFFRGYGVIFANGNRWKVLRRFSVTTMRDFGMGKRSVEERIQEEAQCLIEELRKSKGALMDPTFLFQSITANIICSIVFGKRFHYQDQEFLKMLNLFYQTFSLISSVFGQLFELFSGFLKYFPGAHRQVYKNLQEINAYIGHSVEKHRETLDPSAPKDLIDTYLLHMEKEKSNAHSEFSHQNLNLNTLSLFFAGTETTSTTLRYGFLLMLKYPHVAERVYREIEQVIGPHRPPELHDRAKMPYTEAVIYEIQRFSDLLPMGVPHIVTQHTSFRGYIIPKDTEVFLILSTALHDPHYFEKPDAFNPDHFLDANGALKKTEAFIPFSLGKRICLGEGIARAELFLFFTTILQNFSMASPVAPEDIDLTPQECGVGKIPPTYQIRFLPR
Procedure: as §1

[7] = target: T5, CYP2C9 (Homo sapiens, UniProt P11712); test: Cytochrome p450 inhibition (CEREP); format: in vitro ADME; details: 10 μM
T5 construct: CEREP (contract laboratory)
T5 sequence (P11712 whole entry): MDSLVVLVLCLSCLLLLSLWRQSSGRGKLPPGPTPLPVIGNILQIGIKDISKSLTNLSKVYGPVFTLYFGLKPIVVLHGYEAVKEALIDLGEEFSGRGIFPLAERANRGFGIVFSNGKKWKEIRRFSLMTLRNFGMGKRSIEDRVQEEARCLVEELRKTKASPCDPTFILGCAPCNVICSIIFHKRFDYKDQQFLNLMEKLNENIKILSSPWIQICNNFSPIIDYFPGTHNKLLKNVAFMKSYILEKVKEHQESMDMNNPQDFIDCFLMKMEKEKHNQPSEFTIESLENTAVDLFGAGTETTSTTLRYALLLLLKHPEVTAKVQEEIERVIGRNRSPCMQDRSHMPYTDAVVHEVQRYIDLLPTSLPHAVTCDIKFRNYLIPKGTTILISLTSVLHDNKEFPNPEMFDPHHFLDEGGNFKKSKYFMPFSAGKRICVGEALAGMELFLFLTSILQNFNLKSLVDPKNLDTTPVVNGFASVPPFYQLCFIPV
Procedure: as §1

[8] = target: T6, CYP2D6 (Homo sapiens, UniProt P10635); test: Cytochrome p450 inhibition (CEREP); format: in vitro ADME; details: 10 μM
T6 construct: CEREP (contract laboratory)
T6 sequence (P10635 whole entry): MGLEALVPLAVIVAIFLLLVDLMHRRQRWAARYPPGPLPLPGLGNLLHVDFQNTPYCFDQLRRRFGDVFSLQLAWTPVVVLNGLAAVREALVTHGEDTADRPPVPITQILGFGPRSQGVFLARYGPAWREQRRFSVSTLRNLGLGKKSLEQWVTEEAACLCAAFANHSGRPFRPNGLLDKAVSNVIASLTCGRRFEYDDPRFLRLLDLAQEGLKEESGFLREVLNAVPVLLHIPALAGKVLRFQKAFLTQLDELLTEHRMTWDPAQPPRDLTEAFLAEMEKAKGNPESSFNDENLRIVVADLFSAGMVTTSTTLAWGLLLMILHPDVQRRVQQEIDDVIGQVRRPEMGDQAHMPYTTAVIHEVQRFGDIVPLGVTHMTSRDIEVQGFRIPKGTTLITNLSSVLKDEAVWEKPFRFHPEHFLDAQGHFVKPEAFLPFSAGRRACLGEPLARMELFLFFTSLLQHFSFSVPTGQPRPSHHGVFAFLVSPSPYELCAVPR
Procedure: as §1

Compound	IC50 [2] [nM]	% Hepatocyte viability 24 h at 50 μM [1] [%]	% Hepatocyte viability 24 h at 100 μM [1] [%]	other results
CCCCNc1nc(NCCN2CCOCC2)c2nc(Cl)c(NCCN3CCOCC3)nc2n1 [JB6140]	238	59	–	form of antagonist binding: inhibition of the TLR7 agonist JB6011 [3]: comparable result
C[C@@H]1CN(CCNc2nc3nc(N4CCN(C)CC4)nc(NCCN4C[C@@H](C)O[C@@H](C)C4)c3nc2Cl)C[C@H](C)O1 [JB6143]	24	74	–	–
CCCCNc1nc(NCCN2CCOCC2)c2nc(SCC)c(NCCN3CCOCC3)nc2n1 [JB6185]	74	0	–	–
CN1CCN(c2nc(NCCN3CCOCC3)c3nc(Cl)c(NCCN4CCOCC4)nc3n2)CC1 [JB6121, 6-chloro-2-(4-methylpiperazin-1-yl)-N^4,N^7-bis(2-morpholinoethyl)pteridine-4,7-diamine]	25	–	92	form of antagonist binding: inhibition of the TLR7 agonist JB6011 [3]: competitive; CYP1A2 Mean % Control [4]: 97.0%; CYP3A4, BFC substrate Mean % Control ([5]; BFC substrate): 94.1%; CYP3A4, BzRes substrate Mean % Control ([5]; BzRes substrate): 104.8%; CYP2B6 Mean % Control [6]: 58.2%; CYP2C9 Mean % Control [7]: 46.7%; CYP2D6 Mean % Control [8]: 80.9%
Clc1nc2c(NCCN3CCOCC3)nc(N3CCOCC3)nc2nc1NCCN1CCOCC1 [JB6147]	223	–	–	–

Now from value to compound, other results behind:

IC50 [2] [nM]	Compound	% Hepatocyte viability 24 h at 50 μM [1] [%]	% Hepatocyte viability 24 h at 100 μM [1] [%]	other results
28	COCCN1CCN(c2nc(NCCN3CCOCC3)c3nc(Cl)c(NCCN4CCOCC4)nc3n2)CC1 [JB6160]	47	–	–
81	CN1CCN(c2nc3nc(-c4ccccc4)nc(NCCN4CCOCC4)c3nc2OCCN2CCOCC2)CC1 [JB6116]	–	69	–
64	CCOc1nc2c(NCCN3CCCC3)nc(-c3ccccc3)nc2nc1N1CCN(C)CC1 [JB6131]	–	11	–
62	Clc1nc2c(NCCN3CCOCC3)nc(NCc3ccccc3)nc2nc1NCCN1CCOCC1 [JB6172]	51	–	–
502	CCOc1nc2c(NCCN3CCOCC3)nc(NCc3ccccc3)nc2nc1NCCN1CCOCC1 [JB6180]	13	–	–
143	CN1CCN(c2nc(NCCN3CCOCC3)c3ncc(-c4ccccc4)nc3n2)CC1 [JB6059]	–	69	–
